Laboratory results reported in article PMC9281306 (ACS Omega, 2022).
Like-named read-outs stand apart in the source and are kept apart here. Where a SMILES comes first, the peptide text is derived from it. [ ]: non-standard residue; d: D form.

Key:
[1] = tested on: Mabs ATCC 19977S smooth morphotype; assay: Mabs microdilution antimicrobial assay with purified peptides; type: cell-based, Mycobacterium abscessus; conditions: purified peptide, MHB with EDTA 100 μM, 96 h, 37 °C, OD600, three independent experiments
[2] = tested on: Mabs ATCC 19977R rough morphotype; assay: as above; type: cell-based, Mycobacterium abscessus; conditions: purified peptide, MHB with EDTA 100 μM, 96 h, 37 °C, OD600, three independent experiments
[3] = tested on: P. aeruginosa (ATCC 27853); assay: Cross-inhibitory activity assay; type: cell-based, Pseudomonas aeruginosa; conditions: MHB, 24 h, 37 °C; EDTA not given
[4] = tested on: MRSA USA300; assay: Cross-inhibitory activity assay; type: cell-based, Staphylococcus aureus; conditions: MHB, 24 h, 37 °C; EDTA not given
[5] = tested on: E. coli (ATCC 25922); assay: Cross-inhibitory activity assay; type: cell-based, Escherichia coli; conditions: MHB, 24 h, 37 °C; EDTA not given
[6] = tested on: human red blood cell (hRBC); assay: hRBC hemolytic assay; type: cell-based
[7] = tested on: E. coli urinary tract infection clinical isolates; conditions: MIC in MHB, 22 h, 37 °C, triplicate

CC(C)C[C@@H](NC(=O)[C@@H](C)NC(=O)[C@@H](CCCCN)NC(=O)[C@@H](CCCNC(=N)N)NC(=O)[C@H](Cc1ccccc1)NC(=O)[C@H](CCC(N)=O)NC(=O)[C@H](CC(N)=O)NC(=O)[C@@H](NC(=O)[C@@H](CCCCN)NC(=O)[C@@H](CCCNC(=N)N)NC(=O)[C@H](C)NC(=O)[C@@H](CCCCN)NC(=O)[C@H](CO)NC(=O)[C@@H](CC(C)C)NC(=O)CNC(=O)[C@H](Cc1ccc(O)cc1)NC(=O)[C@H](N)CCCNC(=N)N)C(C)C)C(N)=O [ASU2009] (H-[dR]YG[dL]S[dK]A[dR][dK]VNQF[dR][dK][dA][dL]-NH2)
Mabs ATCC19977S MIC [1]: 256 µM | Mabs ATCC19977R MIC [2]: 256 µM

CC(C)C[C@@H](NC(=O)[C@@H](C)NC(=O)[C@H](CO)NC(=O)[C@@H](CCCCN)NC(=O)[C@@H](CCCNC(=N)N)NC(=O)[C@@H](CCCNC(=N)N)NC(=O)[C@H](Cc1ccccc1)NC(=O)[C@@H](CC(C)C)NC(=O)[C@H](CC(N)=O)NC(=O)[C@H](Cc1c[nH]cn1)NC(=O)[C@@H]1CCCN1C(=O)[C@H](C)NC(=O)[C@H](CO)NC(=O)[C@@H]1CCCN1C(=O)CNC(=O)[C@@H](NC(=O)[C@H](N)CCCNC(=N)N)C(C)C)C(N)=O [ASU2019] (H-[dR]VGPSAPHN[dL]F[dR][dR][dK]S[dA][dL]-NH2)
Mabs ATCC19977S MIC [1]: 256 µM | Mabs ATCC19977R MIC [2]: 256 µM

CC(C)C[C@@H](NC(=O)CNC(=O)[C@@H](Cc1c[nH]c2ccccc12)NC(=O)[C@@H](CCCNC(=N)N)NC(=O)[C@@H](N)CCC(N)=O)C(=O)N[C@@H](CO)C(=O)N[C@H](CC(C)C)C(=O)N[C@@H](C)C(=O)N1CCC[C@H]1C(=O)N[C@@H](Cc1ccc(O)cc1)C(=O)N[C@H](CCCCN)C(=O)N[C@@H](CC(N)=O)C(=O)N[C@@H](Cc1ccccc1)C(=O)N[C@H](CCCNC(=N)N)C(=O)N[C@H](CCCNC(=N)N)C(=O)N[C@H](CC(C)C)C(=O)N[C@@H](CO)C(N)=O [ASU2056] (H-Q[dR][dW]G[dL]S[dL]APY[dK]NF[dR][dR][dL]S-NH2)
P. aeruginosa ATCC 27853 MIC [3]: >32 µM | MRSA USA300 MIC [4]: >32 µM | Mabs ATCC19977S MIC [1]: 32 µM | E. coli ATCC 25922 MIC [5]: 16 µM | Mabs ATCC19977R MIC [2]: >256 µM

CC(C)C[C@@H](NC(=O)[C@@H](C)NC(=O)CNC(=O)[C@@H](CC(C)C)NC(=O)[C@@H](CCCCN)NC(=O)[C@@H](CCCNC(=N)N)NC(=O)[C@@H](CCCNC(=N)N)NC(=O)[C@H](CC(N)=O)NC(=O)[C@H](Cc1ccc(O)cc1)NC(=O)[C@@H](CCCNC(=N)N)NC(=O)[C@H](C)NC(=O)[C@H](CO)NC(=O)[C@@H](CCCNC(=N)N)NC(=O)CNC(=O)[C@@H](N)Cc1ccc(O)cc1)C(=O)N[C@@H](CO)C(=O)NCC(N)=O [ASU2059] (H-YG[dR]SA[dR]YN[dR][dR][dK][dL]G[dA][dL]SG-NH2)
Mabs ATCC19977S MIC [1]: 256 µM | Mabs ATCC19977R MIC [2]: 256 µM

CC(C)C[C@@H](NC(=O)CNC(=O)[C@H](CO)NC(=O)[C@@H](CCCCN)NC(=O)[C@@H](CCCNC(=N)N)NC(=O)[C@@H](Cc1c[nH]c2ccccc12)NC(=O)[C@@H](CCCNC(=N)N)NC(=O)[C@H](Cc1ccccc1)NC(=O)[C@H](CC(N)=O)NC(=O)[C@H](Cc1ccc(O)cc1)NC(=O)[C@@H](CCCNC(=N)N)NC(=O)[C@H](C)NC(=O)[C@H](CO)NC(=O)[C@@H](Cc1c[nH]c2ccccc12)NC(=O)[C@@H](CCCNC(=N)N)NC(=O)CNC(=O)[C@@H](N)C(C)C)C(N)=O [ASU2060] (H-VG[dR][dW]SA[dR]YNF[dR][dW][dR][dK]SG[dL]-NH2)
P. aeruginosa ATCC 27853 MIC [3]: 8 µM | MRSA USA300 MIC [4]: 8 µM | Mabs ATCC19977S MIC [1]: 8 µM | hRBC hemolysis ([6]; 32 µM): less than 1% | E. coli ATCC 25922 MIC [5]: 4 µM | Mabs ATCC19977R MIC [2]: 256 µM

CC1(C)S[C@@H]2[C@H](NC(=O)[C@H](N)c3ccccc3)C(=O)N2[C@H]1C(=O)O [Ampicillin]
Ampicillin susceptibility ([7]; E. coli clinical isolate 23): susceptible | Ampicillin susceptibility ([7]; E. coli clinical isolate 36): resistant | Ampicillin susceptibility ([7]; E. coli clinical isolate 97): resistant | Ampicillin susceptibility ([7]; E. coli clinical isolate 98): resistant

Triton X-100 [reference compound]
hRBC lysis by positive control ([6]; 1%, 4% hRBC in saline, 37 °C, OD475): complete hRBC lysis
